# From BigSolDB 2.1
smiles,measurement,setting,value
NC(N)=S,solubility (mole fraction),"in acetonitrile, 303.15 K",0.00752
same,solubility (mole fraction),"in acetonitrile, 308.15 K",0.00805
same,solubility (mole fraction),"in acetonitrile, 313.15 K",0.00864
same,solubility (mole fraction),"in acetonitrile, 318.15 K",0.00915
same,solubility (mole fraction),"in acetonitrile, 323.15 K",0.00972
same,solubility (mole fraction),"in acetonitrile, 328.15 K",0.0101
same,solubility (mole fraction),"in acetonitrile, 333.15 K",0.0108
same,solubility (mole fraction),"in acetonitrile, 338.15 K",0.011
same,solubility (mole fraction),"in acetonitrile, 343.15 K",0.0112
same,solubility (mole fraction),"in benzene, 303.15 K",0.00283
same,solubility (mole fraction),"in benzene, 308.15 K",0.00313
same,solubility (mole fraction),"in benzene, 313.15 K",0.0034
same,solubility (mole fraction),"in benzene, 318.15 K",0.00372
same,solubility (mole fraction),"in benzene, 323.15 K",0.00395
same,solubility (mole fraction),"in benzene, 328.15 K",0.00436
same,solubility (mole fraction),"in benzene, 333.15 K",0.00496
same,solubility (mole fraction),"in benzene, 338.15 K",0.00564
same,solubility (mole fraction),"in benzene, 343.15 K",0.0065
same,solubility (mole fraction),"in chlorobenzene, 303.15 K",0.00127
same,solubility (mole fraction),"in chlorobenzene, 308.15 K",0.00144
same,solubility (mole fraction),"in chlorobenzene, 313.15 K",0.00157
same,solubility (mole fraction),"in chlorobenzene, 318.15 K",0.00174
same,solubility (mole fraction),"in chlorobenzene, 323.15 K",0.00189
same,solubility (mole fraction),"in chlorobenzene, 328.15 K",0.00211
same,solubility (mole fraction),"in chlorobenzene, 333.15 K",0.0023
same,solubility (mole fraction),"in chlorobenzene, 338.15 K",0.00256
same,solubility (mole fraction),"in chlorobenzene, 343.15 K",0.00277
same,solubility (mole fraction),"in ethanol, 303.15 K",0.0283
same,solubility (mole fraction),"in ethanol, 308.15 K",0.0322
same,solubility (mole fraction),"in ethanol, 313.15 K",0.0354
same,solubility (mole fraction),"in ethanol, 318.15 K",0.0401
same,solubility (mole fraction),"in ethanol, 323.15 K",0.0465
same,solubility (mole fraction),"in ethanol, 328.15 K",0.0531
same,solubility (mole fraction),"in ethanol, 333.15 K",0.0592
same,solubility (mole fraction),"in ethanol, 338.15 K",0.0662
same,solubility (mole fraction),"in ethanol, 343.15 K",0.0751
same,solubility (mole fraction),"in ethyl acetate, 303.15 K",0.0199
same,solubility (mole fraction),"in ethyl acetate, 308.15 K",0.021
same,solubility (mole fraction),"in ethyl acetate, 313.15 K",0.0221
same,solubility (mole fraction),"in ethyl acetate, 318.15 K",0.023
same,solubility (mole fraction),"in ethyl acetate, 323.15 K",0.0244
same,solubility (mole fraction),"in ethyl acetate, 328.15 K",0.0264
same,solubility (mole fraction),"in ethyl acetate, 333.15 K",0.0286
same,solubility (mole fraction),"in ethyl acetate, 338.15 K",0.0307
same,solubility (mole fraction),"in ethyl acetate, 343.15 K",0.0327
same,solubility (mole fraction),"in isopropanol, 303.15 K",0.0258
same,solubility (mole fraction),"in isopropanol, 308.15 K",0.0286
same,solubility (mole fraction),"in isopropanol, 313.15 K",0.0325
same,solubility (mole fraction),"in isopropanol, 318.15 K",0.0361
same,solubility (mole fraction),"in isopropanol, 323.15 K",0.0408
same,solubility (mole fraction),"in isopropanol, 328.15 K",0.0445
same,solubility (mole fraction),"in isopropanol, 333.15 K",0.049
same,solubility (mole fraction),"in isopropanol, 338.15 K",0.0534
same,solubility (mole fraction),"in isopropanol, 343.15 K",0.0588
same,solubility (mole fraction),"in m-xylene, 303.15 K",0.0022
same,solubility (mole fraction),"in m-xylene, 308.15 K",0.00249
same,solubility (mole fraction),"in m-xylene, 313.15 K",0.00277
same,solubility (mole fraction),"in m-xylene, 318.15 K",0.00311
same,solubility (mole fraction),"in m-xylene, 323.15 K",0.00342
same,solubility (mole fraction),"in m-xylene, 328.15 K",0.00375
same,solubility (mole fraction),"in m-xylene, 333.15 K",0.00422
same,solubility (mole fraction),"in m-xylene, 338.15 K",0.00485
same,solubility (mole fraction),"in m-xylene, 343.15 K",0.00556
same,solubility (mole fraction),"in methanol, 303.15 K",0.0605
same,solubility (mole fraction),"in methanol, 308.15 K",0.0654
same,solubility (mole fraction),"in methanol, 313.15 K",0.0728
same,solubility (mole fraction),"in methanol, 318.15 K",0.0804
same,solubility (mole fraction),"in methanol, 323.15 K",0.0932
same,solubility (mole fraction),"in methanol, 328.15 K",0.106
same,solubility (mole fraction),"in methanol, 333.15 K",0.123
same,solubility (mole fraction),"in n-butanol, 303.15 K",0.0207
same,solubility (mole fraction),"in n-butanol, 308.15 K",0.0225
same,solubility (mole fraction),"in n-butanol, 313.15 K",0.0248
same,solubility (mole fraction),"in n-butanol, 318.15 K",0.0273
same,solubility (mole fraction),"in n-butanol, 323.15 K",0.0297
same,solubility (mole fraction),"in n-butanol, 328.15 K",0.0332
same,solubility (mole fraction),"in n-butanol, 333.15 K",0.0361
same,solubility (mole fraction),"in n-butanol, 338.15 K",0.0396
same,solubility (mole fraction),"in n-octanol, 303.15 K",0.0211
same,solubility (mole fraction),"in n-octanol, 308.15 K",0.0242
same,solubility (mole fraction),"in n-octanol, 313.15 K",0.028
same,solubility (mole fraction),"in n-octanol, 318.15 K",0.032
same,solubility (mole fraction),"in n-octanol, 323.15 K",0.0354
same,solubility (mole fraction),"in n-octanol, 328.15 K",0.0394
same,solubility (mole fraction),"in n-octanol, 333.15 K",0.0445
same,solubility (mole fraction),"in n-octanol, 338.15 K",0.0488
same,solubility (mole fraction),"in n-octanol, 343.15 K",0.0526
same,solubility (mole fraction),"in n-propanol, 303.15 K",0.0242
same,solubility (mole fraction),"in n-propanol, 308.15 K",0.0265
same,solubility (mole fraction),"in n-propanol, 313.15 K",0.0292
same,solubility (mole fraction),"in n-propanol, 318.15 K",0.0324
same,solubility (mole fraction),"in n-propanol, 323.15 K",0.036
same,solubility (mole fraction),"in n-propanol, 328.15 K",0.0398
same,solubility (mole fraction),"in n-propanol, 333.15 K",0.0451
same,solubility (mole fraction),"in n-propanol, 338.15 K",0.0499
same,solubility (mole fraction),"in n-propanol, 343.15 K",0.0544
same,solubility (mole fraction),"in toluene, 303.15 K",0.0025
same,solubility (mole fraction),"in toluene, 308.15 K",0.00289
same,solubility (mole fraction),"in toluene, 313.15 K",0.00307
same,solubility (mole fraction),"in toluene, 318.15 K",0.00336
same,solubility (mole fraction),"in toluene, 323.15 K",0.00372
same,solubility (mole fraction),"in toluene, 328.15 K",0.00405
same,solubility (mole fraction),"in toluene, 333.15 K",0.00452
same,solubility (mole fraction),"in toluene, 338.15 K",0.00525
same,solubility (mole fraction),"in toluene, 343.15 K",0.0059
